These results are taken from PMC4501791, “Molecular Design, Synthesis and Trypanocidal Activity of Dipeptidyl Nitriles as Cruzain Inhibitors” (PLoS Neglected Tropical Diseases, 2015).

The target in data set [1] is T1, cruzain (Trypanosoma cruzi, UniProt P25779).
T1 construct: made in house
Briefly: biochemical. The conditions noted are these: 37°C, pH 5.5, substrate Z-FR-AMC.
Experimental: Enzyme kinetic assays were carried out at 37°C in 200 L of a solution containing 100 mM acetate buffer pH 5.5, 300 mM NaCl, 5 mM DTT (dithiothreitol), 5% v/v DMSO (dimethyl sulfoxide), 0.01% v/v Triton X-100 and 0.15 nM cruzain, using Corning® 96-well black flat bottom microplates. The rate of the reaction was monitored using a Biotek Synergy HT plate reader through the fluorescence emission at 460 nm (excitation at 355 nm) due to the hydrolysis of the substrate Z-Phe-Arg-7-amido-4-methylcoumarin (Z-FR-AMC, Sigma-Aldrich). The enzyme stock aliquot was rapidly thawed at 37°C and kept on ice until activation, in which it was incubated for 20 min. in the assay buffer (100 mM acetate pH 5.5 and 5 mM DTT) followed by additional 2 min. incubation with inhibitors before the reaction was started by the addition of the substrate.
Visual inspection and a pre-reading of plate wells were performed to check for possible precipitation and background fluorescence, respectively. Fluorescence emission spectra were also recorded for all inhibitors, using the same excitation wavelength (355 nm) as for the fluorometric assay. […] The reaction was started by the addition of varying concentrations of the substrate and the wells monitored for a total of 5 minutes of reaction. The initial velocities of the substrate hydrolysis under first-order reaction were calculated by Gen5 Biotek software based on the linear-regression coefficient from the fit to data of Relative Fluorescence Unit (mRFU) as a function of time (min).
Each experiment was performed in duplicates for each compound being tested. […] All inhibitors were evaluated in two different concentrations, which were chosen based on a previous screening (percentage of inhibition) at 1.7 μM substrate (~K M). […] SigmaPlot (v. 10.0) was employed for the non-linear fit and the kinetic parameters determination.

In the next data set the test system is LLCMK2 cells. The experiment in a line: Lysis of LLCMK2 host cells. It is filed as cell-based. The conditions noted are these: for cytotoxicity at 32 µM: Macaca mulatta, LLC-MK2, 32 μM, read-out: %cell lysis at 32 μM LLCMK2.
The subject of data set [2] is T. cruzi Tulahuen strain amastigotes. Briefly: Trypanocidal activity against amastigote forms in LLCMK2 cells, Tulahuen strain. It is filed as cell-based. To be noted: for killing at 32 µM / EC50: Trypanosoma cruzi; for killing at 32 µM: LLC-MK2, 120 h, read-out: %cell lysis at 32 μM ama Tula; for killing at 32 µM / %cell lysis at 32 μM ama Tula: amastigote lysis, 5 days; for EC50: LLC-MK2.
Experimental: (§1) The assays against amastigote forms were performed in LLCMK2 cells. Previously, the cells were cultivated in 96-wells microplates (10^3 cells/well). […] After this, the microplates were incubated at 37°C, in CO2 atmosphere, for 5 days. Then, 10 μL of FluoReporter lacZ/Galactosidase Quantitative Kit (Life Technologies) were added and after 30 minutes the fluorometric reaction was read in a microplate reader (Synergy H1, Biotek) at 386 nm excitation and 448 nm emission. For both assays the percentage of parasite lysis was determined from the following formula: %lysis = 100 –{[(X-PC)/(PC-NC)]x100}, where the optical density values of the samples (X), the positive controls (PC) and negative controls (NC) were used. Culture medium was used as positive control (PC) and medium with 0.6% DMSO (v/v) as negative control (NC). All assays were performed in triplicate with two independent experiments.

Data set [3] deals with T. cruzi CL-Brener strain amastigotes. Briefly: Trypanocidal activity against amastigote forms in LLCMK2 cells, CL-Brener strain. The conditions noted are these: 5 days; for killing at 32 µM: Trypanosoma cruzi, LLC-MK2, 120 h, amastigote lysis, read-out: %cell lysis at 32 μM ama Brener. It is filed as cell-based.
Experimental: as §1
For data set [4], the system named is Balb-c 3T3 clone A31 cells. Briefly: MTT cytotoxicity assay using mouse fibroblast cells. The conditions noted are these: 250 μM, Balb-c 3T3 cells, MTT, 24, 48 and 72 h, benznidazole as control. It is filed as cell-based. How it is done:
All compounds were subjected to the MTT colorimetric assay using Balb-c 3T3 clone A31 cells (mouse fibroblast cells) acquired from the Rio de Janeiro Cell Bank (BCRJ code 0047). Inhibition values were determined in the cell-based assay as previously described. Briefly, cells were cultured at 37°C in an atmosphere of 5% CO2 using DMEM medium (Cultilab, Campinas-SP, Brazil) supplemented with 3.5 g glucose (Sigma-Aldrich), 1% penicillin/streptomycin solution and 10% FBS (Cultilab). Cells were plated at a concentration of 10^5 cell/mL in 96-well plates and incubated for 24 h. All compounds were freshly diluted from 50 mM DMSO stock solutions to obtain the final concentration of 250 μM and added to each well by replacing the medium. The cell viability was assessed during 24, 48 and 72 h using the MTT (Sigma-Aldrich) reagent, with an incubation time of 3 h. […] The readout was obtained using Biotek Synergy HT plate reader at 570 nm. Benznidazole was used as control. This assay was done in quatruplicate in two independent experiments. Statistical analyses were made in GraphPad Prism 5. Dunnett’s multiple comparison tests were performed using benznidazole as the standard compound for the ordinary ANOVA analysis using 95% confidence interval.
On the technique in general: Formazan colour is commonly taken as a measure of viable cells.

Data set [5] has as its target T1, cruzain. Briefly: Reversibility assay: recovery of cruzain activity after rapid large dilution. It is filed as biochemical. The conditions noted are these: 4.5 μM compound incubated with 15 nM cruzain for 30 min, diluted 100-fold. How it is done:
The progress curve for this sample was then measured and compared to that of a similar sample of enzyme incubated and diluted in the absence of inhibitor. The irreversible inhibitor E-64 (CAS 66701-25-5, Sigma Aldrich) was used as reference.

Data set [6] can be described thus: Lysis of LLCMK2 host cells. It is filed as cell-based. The conditions noted are these: rhesus monkey, footnote of Table 3, cell line not stated.
[7] abbreviates: amastigote, T. cruzi Tulahuen strain, read-out: pEC50 ama Tula (converted).
[8] abbreviates: amastigote, T. cruzi Tulahuen strain.

Like-named read-outs stand apart in the source and are kept apart here. A value given as a limit tells only on which side of the number the result lay.
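For pKi in this document: fluorometric read-out of substrate hydrolysis at excitation 355 nm and emission 460 nm, initial rates over 5 min, Ki from nonlinear kinetic fits, duplicate runs.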

T1 sequence (P25779 123-337 limits assumed): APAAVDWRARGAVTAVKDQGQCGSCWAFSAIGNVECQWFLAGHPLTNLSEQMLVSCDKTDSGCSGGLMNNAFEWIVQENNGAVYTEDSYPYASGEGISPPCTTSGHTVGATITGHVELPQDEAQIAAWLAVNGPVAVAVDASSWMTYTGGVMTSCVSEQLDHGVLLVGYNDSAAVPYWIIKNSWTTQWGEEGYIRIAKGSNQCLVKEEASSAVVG

In general, Ki refers to the equilibrium dissociation constant of an inhibitor or competing ligand from its target. A lower Ki goes with tighter binding. The melting point is the temperature, or range, at which the solid turns liquid. For the compound `N#Cc1cccc(C[C@H](NC(=O)c2ccccc2)C(=O)NC2(C#N)CC2)c1` [Compound 36, (2S)-N-(1-cyanocyclopropyl)-3-(3-cyanophenyl)-2-(phenylformamido)propanamide], the melting point lay in the range of 191 to 194 °C. Besides, on cruzain [1], the Ki is 3.98 µM.

The compound `N#CCNC(=O)[C@H](Cc1c[nH]c2ccccc12)NC(=O)c1ccccc1` [Compound 12, (2S)-N-(cyanomethyl)-3-(1H-indol-3-yl)-2-(phenylformamido)propanamide] yielded a melting point of 158 to 159 °C. Also, in the data set with LLCMK2 cells, the cytotoxicity at 32 µM worked out at 34 ± 5%. The compound also had a Ki at cruzain [1] of 0.398 µM. Further, the killing at 32 µM in data set [2] (T. cruzi Tulahuen strain) was determined as 60 ± 5%. Moreover, in data set [2] (against the parasite (amastigote, Tulahuen strain), read-out: EC50), the EC50 is 28 µM. Also, the EC50 in data set [2] (setting [7]) is 25.1 µM. The killing at 32 µM in data set [3] turned out to be 17 ± 1%. Besides, the cytotoxicity entry in data set [4] is given as “same range of cytotoxicity when compared to benznidazole”.

Regarding `N#CC1(NC(=O)[C@H](Cc2ccccc2)NC(=O)c2cnccn2)CC1` [Compound 35, (2S)-N-(1-cyanocyclopropyl)-3-phenyl-2-(pyrazin-2-ylformamido)propanamide], the melting point fell in the range of 162 to 164 °C. The compound further showed a Ki on cruzain [1] of 0.501 µM.

Regarding `N#CCNC(=O)[C@H](Cc1ccc(O)cc1)NC(=O)c1ccccc1` [Compound 10, (2S)-N-(cyanomethyl)-3-(4-hydroxyphenyl)-2-(phenylformamido)propanamide], the melting point lay within 209 to 210 °C. In addition, the cytotoxicity at 32 µM in the data set on LLCMK2 cells came out at 18 ± 3%. Also, affinity on cruzain [1] was put at a Ki of 0.2 µM. The killing at 32 µM in data set [2] (T. cruzi Tulahuen strain) stood at 32 ± 4%. Further, in data set [2] (setting [7]), the EC50 was 200 µM. The killing at 32 µM in data set [3] is 18 ± 1%.

As for `N#CCNC(=O)[C@H](Cc1ccccc1)NC(=O)c1ccco1` [Compound 17, (2S)-N-(cyanomethyl)-2-(furan-2-ylformamido)-3-phenylpropanamide], the melting point is 176 to 179 °C. The cytotoxicity at 32 µM in the data set with LLCMK2 cells came to 24 ± 0.2%. Also, the inhibition constant Ki at cruzain [1] is 0.501 µM. Also, in data set [2] (T. cruzi Tulahuen strain), the killing at 32 µM came out at 36 ± 1%. Moreover, the EC50 in data set [2] (setting [7]) is 100 µM. Also, the killing at 32 µM in data set [3] amounted to 21 ± 2%.

Regarding `N#CCNC(=O)[C@H](Cc1cccc(Cl)c1)NC(=O)c1ccccc1` [Compound 9, (2S)-3-(3-chlorophenyl)-N-(cyanomethyl)-2-(phenylformamido)propanamide], the melting point was in the range of 176 to 178 °C. Further, in the data set with LLCMK2 cells, the cytotoxicity at 32 µM was 12 ± 1%. For the same compound, the affinity at cruzain [1] corresponds to a Ki of 0.251 µM. Also, the killing at 32 µM in data set [2] (T. cruzi Tulahuen strain) was 17 ± 2%. Further, in data set [2] (setting [7]), the EC50 is 100 µM. Further, the killing at 32 µM in data set [3] came to 24 ± 1%.

As for `Cn1nc(C(F)(F)F)cc1C(=O)N[C@@H](Cc1ccccc1)C(=O)NC1(C#N)CC1` [Compound 33, (2S)-N-(1-cyanocyclopropyl)-2-{[1-methyl-3-(trifluoromethyl)-1H-pyrazol-5-yl]formamido}-3-phenylpropanamide], the melting point lay in the range of 211 to 212 °C. The same compound gave an inhibition constant (Ki) on cruzain [1] of 0.398 µM. Moreover, in data set [3], the killing at 32 µM turned out to be 22 ± 10%.

With `N#CCNC(=O)[C@H](Cc1ccccc1)NC(=O)c1ccccc1` [Compound 5, (2S)-N-(cyanomethyl)-3-phenyl-2-(phenylformamido)propanamide], the affinity at cruzain [1] corresponds to a Ki of 0.501 µM. Besides, the EC50 in data set [2] (setting [7]) was 126 µM. Further, the reversibility of inhibition result on cruzain [5] is recorded as “reversible”.

Compound `CC(C)(C)C[C@H](NC(=O)c1ccccc1)C(=O)NC1(C#N)CC1` [Compound 32, (2S)-N-(1-cyanocyclopropyl)-4,4-dimethyl-2-(phenylformamido)pentanamide] yielded a melting point of 186 to 187 °C. Also, the affinity on cruzain [1], expressed as Ki, was 25.1 µM.

For `CC(C)C[C@H](NC(=O)c1cc(C(C)(C)C)nn1C)C(=O)NCC#N` [Compound 29, (2S)-2-[(3-tert-butyl-1-methyl-1H-pyrazol-5-yl)formamido]-N-(cyanomethyl)-4 methylpentanamide], the melting point lay in the range of 179 to 180 °C. Besides, the cytotoxicity at 32 µM with LLCMK2 cells amounted to 27 ± 18%. Further, the Ki on cruzain [1] is 0.0631 µM. In addition, the killing at 32 µM in data set [2] (T. cruzi Tulahuen strain) came to 17 ± 4%. Besides, the killing at 32 µM in data set [3] is 10 ± 1%.

With `N#CCNC(=O)C1(NC(=O)c2ccccc2)CCCC1` [Compound 14, N-(1-[(cyanomethyl)carbamoyl]cyclopentyl)benzamide], the melting point fell in the range of 165 to 166 °C. Moreover, the cytotoxicity at 32 µM in the data set with LLCMK2 cells was determined as 18 ± 1%. At cruzain [1], this compound gave a Ki of 7.94 µM. For the same compound, the killing at 32 µM in data set [2] (T. cruzi Tulahuen strain) was determined as 25 ± 4%. Further, the EC50 in data set [2] (setting [7]) was 200 µM. The killing at 32 µM in data set [3] was 9 ± 1%.

The compound `N#CCNC(=O)[C@H](Cc1ccc(OC(=O)c2ccccc2)cc1)NC(=O)c1ccccc1` [Compound 11, 4-[(2S)-2-[(cyanomethyl)carbamoyl]-2-(phenylformamido)ethyl]phenyl benzoate] showed a melting point of 254 to 256 °C. Further, the cytotoxicity at 32 µM in the data set on LLCMK2 cells was found to be 8 ± 5%. At cruzain [1], this compound gave a Ki of 1.26 µM. Besides, in data set [2] (T. cruzi Tulahuen strain), the killing at 32 µM was 16 ± 6%. The EC50 in data set [2] (setting [7]) was over 316 µM. In data set [3], the killing at 32 µM was found to be 17 ± 1%.

In turn, `N#CCNC(=O)[C@H](Cc1ccccc1)NC(=O)c1ccncn1` [Compound 18, (2S)-N-(cyanomethyl)-3-phenyl-2-(pyrimidin-4-ylformamido)propanamide] returned a melting point of 171 to 173 °C. Moreover, the cytotoxicity at 32 µM in the data set on LLCMK2 cells came to 20 ± 1%. For the same compound, the inhibition constant (Ki) on cruzain [1] is 1.26 µM. Also, the killing at 32 µM in data set [2] (T. cruzi Tulahuen strain) worked out at 17 ± 2%. In addition, in data set [2] (setting [7]), the EC50 is 200 µM. Moreover, the killing at 32 µM in data set [3] worked out at 18 ± 1%.

Usually CC50 stands for the concentration giving 50% cytotoxicity. Compound `O=C(Cn1ccnc1[N+](=O)[O-])NCc1ccccc1` [Benznidazole, reference compound] showed a CC50 at 5 days in data set [6] of 353 µM. Besides, the cytotoxicity at 32 µM in the data set on LLCMK2 cells is 31 ± 2%. Also, the killing at 32 µM in data set [2] (T. cruzi Tulahuen strain) came to 78 ± 3%; in data set [3] it was 29 ± 2%. Besides, the EC50 in data set [2] (setting [7]) is 1.58 µM.

By pKi is commonly meant −log10 of the Ki, conventionally taken in molar units. Higher therefore signals a small Ki. For `CC(C)(C)OC(=O)N[C@@H](Cc1ccccc1)C(=O)NCC#N` [Compound 25, Tert-butyl-N-[(1S)-1-[(cyanomethyl)carbamoyl]-2-phenylethyl]carbamete], the “%cell lysis at 32 μM LLCMK2” value in the data set with LLCMK2 cells is reported as 31 ± 2%. For the same compound, the pKi at cruzain [1] is given as 5.6. In addition, the “%cell lysis at 32 μM ama Tula” value in data set [2] (T. cruzi Tulahuen strain) is 37 ± 1%. The “pEC50 ama Tula” value in data set [2] (setting [8]) is 4.1. For the same compound, in data set [3], the “%cell lysis at 32 μM ama Brener” value is 23 ± 2%.

As for `N#CC1(NC(=O)C2(NC(=O)c3ccccc3)CCCC2)CC1` [Compound 37], the “%cell lysis at 32 μM LLCMK2” value with LLCMK2 cells worked out at 26 ± 3%. The same compound showed a pKi on cruzain [1] of 4.9. In addition, the “%cell lysis at 32 μM ama Tula” value in data set [2] (T. cruzi Tulahuen strain) is 34 ± 5%. In addition, the “pEC50 ama Tula” value in data set [2] (setting [8]) came out at 4.1. In data set [3], the “%cell lysis at 32 μM ama Brener” value is listed as 8 ± 3%.

Take `N#CCNC(=O)[C@H](CCCNC(=N)N)NC(=O)c1ccccc1` [Compound 13, (2S)-5-carbamimidamido-N-(cyanomethyl)-2-(phenylformamido)pentanamide]: the melting point lay in the range of 117 to 118 °C. On cruzain [1], this compound gave a Ki of 126 µM.

With `N#CCNC(=O)[C@H](Cc1ccccc1)NC(=O)c1cccs1` [Compound 16, (2S)-N-(cyanomethyl)-3-phenyl-2-(thiophen-2-ylformamido)propanamide], the cytotoxicity at 32 µM in the data set with LLCMK2 cells is 19 ± 4%. In addition, the inhibition constant (Ki) at cruzain [1] was 0.794 µM. The killing at 32 µM turned out to be 30 ± 11% in data set [2] (T. cruzi Tulahuen strain) and 24 ± 2% in data set [3]. For the same compound, the EC50 in data set [2] (setting [7]) was 63.1 µM.

As to `Cn1nc(C(C)(C)C)cc1C(=O)N[C@@H](Cc1ccccc1)C(=O)NCC#N` [Compound 21, (2S)-2-[(3-tert-butyl-1-methyl-1H-pyrazol-5-yl)formamido]-N-(cyanomethyl)-3-phenylpropanamide], the melting point was 160 to 162 °C. For the same compound, the affinity at cruzain [1] corresponds to a Ki of 0.0631 µM.
